The target of assay [1] is T1, Replicative DNA helicase DnaB (Mycobacterium tuberculosis, UniProt P9WMR3).
T1 sequence (P9WMR3 whole entry): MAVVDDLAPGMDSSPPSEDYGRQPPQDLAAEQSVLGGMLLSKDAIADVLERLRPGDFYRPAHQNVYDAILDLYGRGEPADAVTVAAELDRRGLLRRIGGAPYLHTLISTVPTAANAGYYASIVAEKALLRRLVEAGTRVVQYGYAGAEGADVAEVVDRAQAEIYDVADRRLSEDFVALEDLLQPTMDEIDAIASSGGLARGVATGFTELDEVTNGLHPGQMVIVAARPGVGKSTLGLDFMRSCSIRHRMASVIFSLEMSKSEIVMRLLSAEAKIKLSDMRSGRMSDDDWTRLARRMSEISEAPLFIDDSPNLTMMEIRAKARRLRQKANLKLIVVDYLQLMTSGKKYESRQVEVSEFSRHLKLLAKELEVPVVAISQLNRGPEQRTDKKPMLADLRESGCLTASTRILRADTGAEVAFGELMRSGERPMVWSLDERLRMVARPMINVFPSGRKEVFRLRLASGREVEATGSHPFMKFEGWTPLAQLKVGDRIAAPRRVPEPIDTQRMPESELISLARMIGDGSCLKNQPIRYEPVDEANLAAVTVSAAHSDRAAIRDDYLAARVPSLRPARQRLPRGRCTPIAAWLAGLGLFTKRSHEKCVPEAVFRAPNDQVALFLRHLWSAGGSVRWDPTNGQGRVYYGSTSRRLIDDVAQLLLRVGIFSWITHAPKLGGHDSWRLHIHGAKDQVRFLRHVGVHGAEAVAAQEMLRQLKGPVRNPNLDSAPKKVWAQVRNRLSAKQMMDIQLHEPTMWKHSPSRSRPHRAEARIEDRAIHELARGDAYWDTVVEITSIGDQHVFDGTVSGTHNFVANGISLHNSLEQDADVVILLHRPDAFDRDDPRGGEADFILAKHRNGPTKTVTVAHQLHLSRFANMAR
Briefly: DnaB intein splicing inhibitors, dose response, biochemical, cell-free fluorescence (AID 449749). In kind it is functional.

Assay [2] in a line: Luminescence Cell-Based Dose Response HTS to Identify Activators of Luciferase Translation or Activity in H4 […] Cells. [Related pubchem assays: 1829 (Project Summary), 1814 (Primary HTS)]. In kind it is functional.
A further assay has as its system INS1. The assay can be described thus: INS-1E survival protection against cytokine death – cell-based, luminescence, retest, dose response (AID 449756).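 Further: cell death triggered by IL-1 beta plus TNF-alpha plus IFN-gamma mixture; protective hits raise ATP signal compared with cytokine alone wells.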 It counts as functional. The following applies: Rattus norvegicus.
The subject of assay [3] is Vero. Briefly: cells. It counts as functional. The following applies: Chlorocebus sabaeus.
The nature of assay [4]: A Cell-Based Counter Screen testing Compounds that Inhibit VEEV TC-83, in strain KU V3526. In kind it is functional.
Another assay addresses T2, Protein RecA (Mycobacterium tuberculosis, UniProt P9WHJ3).
T2 sequence (P9WHJ3 whole entry): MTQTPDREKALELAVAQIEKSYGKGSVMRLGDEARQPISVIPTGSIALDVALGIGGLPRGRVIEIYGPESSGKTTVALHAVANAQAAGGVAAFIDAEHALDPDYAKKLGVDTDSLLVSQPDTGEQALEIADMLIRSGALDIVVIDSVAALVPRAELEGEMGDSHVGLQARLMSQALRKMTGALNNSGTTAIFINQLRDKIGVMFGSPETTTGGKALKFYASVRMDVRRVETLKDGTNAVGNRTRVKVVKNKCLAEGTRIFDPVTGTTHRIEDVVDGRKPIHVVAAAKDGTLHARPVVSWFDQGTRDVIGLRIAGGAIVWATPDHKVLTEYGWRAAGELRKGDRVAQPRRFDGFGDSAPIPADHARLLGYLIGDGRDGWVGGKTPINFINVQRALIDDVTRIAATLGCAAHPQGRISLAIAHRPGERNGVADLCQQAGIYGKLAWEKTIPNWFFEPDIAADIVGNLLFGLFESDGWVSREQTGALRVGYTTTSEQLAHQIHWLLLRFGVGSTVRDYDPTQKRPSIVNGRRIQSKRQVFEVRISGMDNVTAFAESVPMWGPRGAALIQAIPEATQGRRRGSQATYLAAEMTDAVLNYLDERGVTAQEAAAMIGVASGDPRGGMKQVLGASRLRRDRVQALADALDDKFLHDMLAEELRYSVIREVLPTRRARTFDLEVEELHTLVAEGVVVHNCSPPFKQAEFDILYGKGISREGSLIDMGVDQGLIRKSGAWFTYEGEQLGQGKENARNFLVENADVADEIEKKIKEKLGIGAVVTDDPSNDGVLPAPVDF
Briefly: Fluorescence Cell-Free Homogeneous Dose Retest to Identify Inhibitors of RecA-Intein Splicing Activity. [Related pubchem assays (depositor defined):AID2097, AID2223, AID489010, AID492950]. In kind it is functional.

In assay [5] the test system is Vero. The assay can be described thus: mammalian cell viability reduction – secondary assay, cytotoxicity control for West Nile virus antiviral project, dose response (AID 1650). In kind it is functional. The note with it: Chlorocebus sabaeus.
Assay [6] concerns Vero. The assay can be described thus: cells. In kind it is functional, cell-based. The following applies: Chlorocebus sabaeus.
The test system of a further assay is H4. Briefly: Luminescence Cell-Based Dose Response HTS to Identify Activators of 5'UTR Stem-Loop Driven Prion Protein mRNA Translation in H4 Neuroglioblastoma Cells. [Related pubchem assays: 1829 (Project Summary), 1814 (Primary HTS)]. It counts as functional. The note with it: Homo sapiens.
Assay [7] is described as follows: Luminescence Cell-Based Dose Retest to Confirm Inhibitors of Cancer Stem Cells. [Related pubchem assays (depositor defined):AID2717, AID2721]. In kind it is functional. The note with it: Homo sapiens.
Assay [8] can be described thus: A Cell-Based Confirmatory Screen for Compounds that Inhibit VEEV, TC-83 (2). It counts as functional.
Assay [9] addresses T3, Sentrin-specific protease 7 (Homo sapiens, UniProt Q9BQF6).
T3 sequence (Q9BQF6 whole entry): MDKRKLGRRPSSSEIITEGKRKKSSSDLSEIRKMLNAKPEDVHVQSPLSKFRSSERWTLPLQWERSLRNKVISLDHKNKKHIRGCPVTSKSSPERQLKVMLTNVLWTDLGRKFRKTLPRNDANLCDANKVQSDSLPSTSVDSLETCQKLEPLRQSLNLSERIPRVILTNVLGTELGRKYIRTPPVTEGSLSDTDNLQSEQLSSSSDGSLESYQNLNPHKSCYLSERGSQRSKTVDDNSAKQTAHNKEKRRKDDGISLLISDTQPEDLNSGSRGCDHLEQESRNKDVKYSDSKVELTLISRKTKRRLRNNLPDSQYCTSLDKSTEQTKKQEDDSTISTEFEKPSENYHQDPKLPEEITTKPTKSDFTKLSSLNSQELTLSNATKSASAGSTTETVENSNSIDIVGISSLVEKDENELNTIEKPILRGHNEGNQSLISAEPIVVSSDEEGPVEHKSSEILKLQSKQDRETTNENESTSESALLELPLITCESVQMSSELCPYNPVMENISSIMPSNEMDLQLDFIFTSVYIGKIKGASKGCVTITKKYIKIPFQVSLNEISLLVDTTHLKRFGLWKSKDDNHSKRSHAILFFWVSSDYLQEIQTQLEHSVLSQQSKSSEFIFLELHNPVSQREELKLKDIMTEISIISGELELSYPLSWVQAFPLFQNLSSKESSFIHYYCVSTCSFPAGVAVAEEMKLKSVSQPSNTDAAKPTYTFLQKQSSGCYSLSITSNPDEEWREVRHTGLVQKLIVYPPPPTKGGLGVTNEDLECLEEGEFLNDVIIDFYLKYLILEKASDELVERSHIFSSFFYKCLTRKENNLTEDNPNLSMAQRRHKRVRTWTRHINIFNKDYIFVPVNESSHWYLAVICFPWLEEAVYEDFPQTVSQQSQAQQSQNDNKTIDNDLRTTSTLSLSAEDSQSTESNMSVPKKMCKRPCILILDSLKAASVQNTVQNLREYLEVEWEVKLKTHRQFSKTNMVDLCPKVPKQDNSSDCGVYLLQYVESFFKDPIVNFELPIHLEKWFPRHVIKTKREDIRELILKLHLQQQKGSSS
Briefly: inhibition of human SENP7 cleavage activity – biochemical, luminescence, SAR follow-up (AID 504497). It counts as functional.

In assay [10] the target is T4, Caspase-3 (Homo sapiens, UniProt P42574).
T4 sequence (P42574 whole entry): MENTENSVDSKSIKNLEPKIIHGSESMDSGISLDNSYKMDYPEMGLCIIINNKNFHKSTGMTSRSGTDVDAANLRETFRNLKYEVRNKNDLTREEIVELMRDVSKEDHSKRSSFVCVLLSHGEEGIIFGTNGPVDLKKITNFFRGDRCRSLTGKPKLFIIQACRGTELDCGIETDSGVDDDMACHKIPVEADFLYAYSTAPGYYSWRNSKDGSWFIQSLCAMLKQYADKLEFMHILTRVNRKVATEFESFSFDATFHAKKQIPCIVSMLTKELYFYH
It counts as functional.

Assay [11] deals with Oxysterols receptor LXR-beta (Homo sapiens, UniProt P55055). In kind it is functional, cell-based.
The target of assay [12] is T5, Sentrin-specific protease 8 (Homo sapiens, UniProt Q96LD8).
T5 sequence (Q96LD8 whole entry): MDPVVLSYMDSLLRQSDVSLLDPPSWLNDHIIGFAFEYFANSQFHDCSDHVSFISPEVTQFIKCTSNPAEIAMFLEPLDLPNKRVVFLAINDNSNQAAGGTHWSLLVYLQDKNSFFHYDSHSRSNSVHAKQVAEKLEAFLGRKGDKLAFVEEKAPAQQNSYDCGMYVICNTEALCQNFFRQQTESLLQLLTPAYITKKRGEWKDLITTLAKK
Briefly: inhibition of human SENP8 cleavage activity – biochemical, luminescence, SAR follow-up (AID 504501). It counts as functional.

The target of another assay is Nonstructural protein 1 (Influenza A virus, UniProt Q194T2). In kind it is functional, Influenza A virus (A/California/07/2009(H1N1)).
Assay [13] concerns the target T3, Sentrin-specific protease 7. It counts as functional.
The target of a further assay is Cytochrome P450 2D6 (Homo sapiens, UniProt P10635).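 Further: CYP2D6 member of a cytochrome P450 panel assay.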
Assay [14] has as its target T6, Sentrin-specific protease 6 (Homo sapiens, UniProt Q9GZR1).
T6 sequence (Q9GZR1 whole entry): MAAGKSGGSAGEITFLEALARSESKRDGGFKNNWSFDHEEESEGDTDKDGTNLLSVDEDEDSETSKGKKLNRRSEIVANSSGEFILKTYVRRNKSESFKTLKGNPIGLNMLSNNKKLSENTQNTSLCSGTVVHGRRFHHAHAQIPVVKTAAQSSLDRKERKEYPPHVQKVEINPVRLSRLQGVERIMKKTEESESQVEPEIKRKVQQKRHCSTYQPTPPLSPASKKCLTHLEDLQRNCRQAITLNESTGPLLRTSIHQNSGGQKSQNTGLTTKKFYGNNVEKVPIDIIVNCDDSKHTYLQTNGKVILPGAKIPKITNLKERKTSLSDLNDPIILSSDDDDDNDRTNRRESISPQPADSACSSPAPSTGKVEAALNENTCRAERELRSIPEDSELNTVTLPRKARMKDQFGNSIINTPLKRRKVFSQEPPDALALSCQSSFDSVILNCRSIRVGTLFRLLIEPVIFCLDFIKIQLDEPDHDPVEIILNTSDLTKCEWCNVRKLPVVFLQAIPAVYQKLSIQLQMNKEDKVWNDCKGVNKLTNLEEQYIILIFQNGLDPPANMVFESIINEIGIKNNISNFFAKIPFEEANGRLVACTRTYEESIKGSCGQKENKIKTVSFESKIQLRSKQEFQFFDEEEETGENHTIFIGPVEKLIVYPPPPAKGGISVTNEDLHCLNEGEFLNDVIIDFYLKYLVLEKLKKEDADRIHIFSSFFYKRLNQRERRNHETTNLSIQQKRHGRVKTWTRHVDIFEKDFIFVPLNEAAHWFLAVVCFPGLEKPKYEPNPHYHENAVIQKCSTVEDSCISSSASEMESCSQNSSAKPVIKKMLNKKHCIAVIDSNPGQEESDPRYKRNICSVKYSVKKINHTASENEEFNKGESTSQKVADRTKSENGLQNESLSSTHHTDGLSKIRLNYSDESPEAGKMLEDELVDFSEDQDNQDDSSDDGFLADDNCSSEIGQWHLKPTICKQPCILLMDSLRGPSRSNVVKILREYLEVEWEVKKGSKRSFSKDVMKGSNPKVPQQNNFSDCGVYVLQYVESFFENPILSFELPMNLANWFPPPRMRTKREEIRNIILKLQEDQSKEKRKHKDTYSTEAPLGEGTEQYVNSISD
The assay can be described thus: SAR Analysis of small molecule inhibitors of Sentrin-specific protease 6 (SENP6) using a Luminescent assay. [Related pubchem assays (depositor defined):AID2582, AID2599]. In kind it is functional.

Assay [15] addresses T6, Sentrin-specific protease 6. It counts as functional.
In assay [16] the target is T5, Sentrin-specific protease 8. In kind it is functional.
For assay [17], the target named is T4, Caspase-3. Briefly: SAR Analysis of small molecule inhibitors of Sentrin-specific proteases (SENPs) using a Caspase-3 Selectivity assay. [Related pubchem assays (depositor defined):AID2540, AID2599, AID434973, AID489001]. In kind it is functional.

These results are taken from ChEMBL document CHEMBL1201862, “PubChem BioAssay data set” (2004).

What is called AC50 is the concentration at which the activity in the assay is half-maximal. For orientation: EC50 means the midpoint of the concentration-response curve. A word on the CC50: it is the concentration that lowers cell viability or growth by half. Usually IC50 stands for the concentration at which inhibition is half-maximal.

Active and inactive are the calls of the source.

Chain of Oxysterols receptor LXR-beta (P55055 whole entry): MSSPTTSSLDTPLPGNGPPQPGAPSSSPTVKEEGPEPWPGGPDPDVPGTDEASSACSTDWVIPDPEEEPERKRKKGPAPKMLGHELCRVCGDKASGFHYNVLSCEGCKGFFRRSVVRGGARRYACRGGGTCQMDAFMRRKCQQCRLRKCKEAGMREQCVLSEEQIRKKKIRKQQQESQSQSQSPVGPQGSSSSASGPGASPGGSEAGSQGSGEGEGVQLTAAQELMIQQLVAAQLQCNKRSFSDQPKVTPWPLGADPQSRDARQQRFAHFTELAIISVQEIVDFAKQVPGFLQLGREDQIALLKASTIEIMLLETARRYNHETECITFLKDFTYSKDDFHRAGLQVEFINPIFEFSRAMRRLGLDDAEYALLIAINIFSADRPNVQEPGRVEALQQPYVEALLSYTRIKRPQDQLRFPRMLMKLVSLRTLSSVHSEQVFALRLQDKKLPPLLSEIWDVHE
Chain of Cytochrome P450 2D6 (P10635 whole entry): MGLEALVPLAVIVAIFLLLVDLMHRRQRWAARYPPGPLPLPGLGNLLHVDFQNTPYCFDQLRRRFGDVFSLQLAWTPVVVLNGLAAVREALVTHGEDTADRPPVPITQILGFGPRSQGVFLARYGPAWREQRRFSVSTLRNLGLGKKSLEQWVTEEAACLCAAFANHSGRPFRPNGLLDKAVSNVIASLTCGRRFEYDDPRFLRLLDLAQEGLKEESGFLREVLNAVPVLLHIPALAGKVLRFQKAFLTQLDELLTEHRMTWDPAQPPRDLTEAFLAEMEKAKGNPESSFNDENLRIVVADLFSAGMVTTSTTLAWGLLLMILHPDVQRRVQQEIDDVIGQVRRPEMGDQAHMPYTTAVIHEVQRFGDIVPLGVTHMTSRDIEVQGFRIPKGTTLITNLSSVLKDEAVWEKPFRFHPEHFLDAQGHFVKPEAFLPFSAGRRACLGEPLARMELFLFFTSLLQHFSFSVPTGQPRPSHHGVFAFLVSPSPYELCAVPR
Chain of Nonstructural protein 1 (Q194T2 whole entry): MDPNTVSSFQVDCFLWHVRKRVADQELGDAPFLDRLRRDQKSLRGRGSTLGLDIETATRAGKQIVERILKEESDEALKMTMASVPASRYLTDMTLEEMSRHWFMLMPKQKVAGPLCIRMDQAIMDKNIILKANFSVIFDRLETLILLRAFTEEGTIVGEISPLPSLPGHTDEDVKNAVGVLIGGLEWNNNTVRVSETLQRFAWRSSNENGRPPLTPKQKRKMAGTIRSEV

On to `Clc1ccc2nnnc(-c3ccccc3)c2c1`, for which the AC50 in assay [1] was 24.8 µM (active); with INS1 it was 7.81 µM (active); in assay [7], 3.08 µM (active). Further, the EC50 was 2.12 µM (active) in [2], 3.78 µM (active) on Protein RecA and > 120 µM (not active) with H4. The CC50 was > 25 µM (active) in the assay with Vero [3] and 12.3 µM (active) in the assay with Vero [5]. Moreover, the IC50 in assay [4] is 3.45 µM (active); with Vero [6], 9.71 µM (active); in [8] it was 6.12 µM (active).
With `O=[N+]([O-])c1ccccc1N/N=C/c1c[nH]c2ccccc12`, the 50% inhibitory concentration (IC50) in [9] is 2.26 µM (active); at Caspase-3 [10], 32.8 µM (active); in [12], 6.32 µM (active); at Nonstructural protein 1, 19 µM (active); in assay [13] it was 3.36 µM (active); in [14], 5.73 µM (active). Also, the IC50 in [15] is > 100 µM (inactive); in assay [16], > 100 µM (inactive); on Caspase-3 [17] it was 17.4 µM (active). In addition, the EC50 (in [11]; in the assay “cells”) was > 67.5 µM (inactive) in each case. Further, the half-maximal activity concentration (AC50) at Cytochrome P450 2D6 is 20 µM (inconclusive).
